Measurements: patent US10392404B2, “Compounds and compositions as kinase inhibitors” (NOVARTIS AG, priority 2014, dated 2019)

What was measured:
C-RAF = biological target: T1, C-RAF (Homo sapiens, UniProt P04049, Y340E/Y341E); experiment: In vitro Raf activity determination (Alpha Screen, biotinylated kinase-dead MEK1 substrate), C-Raf; format: biochemical; details: c-Raf approximately 4 nM; ATP 1 μM; pre-incubation 60 minutes; reaction 1 hour at room temperature
T1 construct: His tag (implied by nickel chromatography) (cleaved yes); StrepII tag (cleaved yes); made in house; host or cells: Sf9 insect cells (baculovirus), CRAF and h14-3-3 zeta co-expressed; MEK1 substrate from E. coli
Method in brief: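 AlphaScreen read-out of MEK phosphorylation using an anti-phospho-MEK1/2 antibody after a 1 hour room-temperature reaction at 1 μM ATP. Enzyme: approximately 4 nM Sf9-expressed full-length activated C-Raf (Y340E/Y341E, with 14-3-3ζ) on approximately 10 nM biotinylated K97R MEK1, after 60 min compound preincubation. IC50 by non-linear fit.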

b-Raf (V600E) = biological target: T2, b-Raf (V600E) (Homo sapiens, UniProt P15056, V600E); experiment: In vitro Raf activity determination (Alpha Screen, biotinylated kinase-dead MEK1 substrate), B-Raf; format: biochemical; details: b-Raf (V600E) approximately 4 pM; ATP 10 μM; pre-incubation 60 minutes; reaction 3 hours at room temperature
T2 construct: made in house
Method in brief: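 IC50 from non-linear regression of AlphaScreen phospho-MEK signal (anti-p-MEK1/2 antibody). b-Raf(V600E), about 4 pM, phosphorylated ~10 nM biotinylated K97R MEK1 with 10 μM ATP for 3 h at room temperature after 60 min compound pre-incubation; buffer pH 7.5 Tris, 15 mM MgCl2, 1 mM DTT.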

T2 sequence (P15056 whole entry V600E): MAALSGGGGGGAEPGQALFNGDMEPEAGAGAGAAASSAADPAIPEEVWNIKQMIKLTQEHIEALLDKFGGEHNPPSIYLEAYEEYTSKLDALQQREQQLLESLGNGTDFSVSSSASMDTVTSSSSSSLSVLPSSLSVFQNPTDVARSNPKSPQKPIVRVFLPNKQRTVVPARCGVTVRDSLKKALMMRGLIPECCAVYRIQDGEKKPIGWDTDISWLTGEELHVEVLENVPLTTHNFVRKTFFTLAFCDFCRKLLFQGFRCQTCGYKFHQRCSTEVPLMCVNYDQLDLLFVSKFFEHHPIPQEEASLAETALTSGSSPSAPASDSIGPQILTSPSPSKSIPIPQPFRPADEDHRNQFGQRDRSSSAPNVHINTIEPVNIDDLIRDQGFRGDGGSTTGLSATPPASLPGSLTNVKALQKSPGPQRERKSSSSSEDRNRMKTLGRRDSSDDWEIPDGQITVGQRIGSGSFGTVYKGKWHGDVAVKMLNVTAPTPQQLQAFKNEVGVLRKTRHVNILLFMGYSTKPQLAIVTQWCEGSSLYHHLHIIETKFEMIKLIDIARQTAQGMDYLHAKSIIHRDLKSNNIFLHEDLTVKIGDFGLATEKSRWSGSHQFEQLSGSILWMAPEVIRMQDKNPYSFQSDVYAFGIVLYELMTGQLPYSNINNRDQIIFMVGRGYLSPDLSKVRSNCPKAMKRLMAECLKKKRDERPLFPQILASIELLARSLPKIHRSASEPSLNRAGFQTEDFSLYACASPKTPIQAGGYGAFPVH
T1 sequence (P04049 whole entry Y340E/Y341E): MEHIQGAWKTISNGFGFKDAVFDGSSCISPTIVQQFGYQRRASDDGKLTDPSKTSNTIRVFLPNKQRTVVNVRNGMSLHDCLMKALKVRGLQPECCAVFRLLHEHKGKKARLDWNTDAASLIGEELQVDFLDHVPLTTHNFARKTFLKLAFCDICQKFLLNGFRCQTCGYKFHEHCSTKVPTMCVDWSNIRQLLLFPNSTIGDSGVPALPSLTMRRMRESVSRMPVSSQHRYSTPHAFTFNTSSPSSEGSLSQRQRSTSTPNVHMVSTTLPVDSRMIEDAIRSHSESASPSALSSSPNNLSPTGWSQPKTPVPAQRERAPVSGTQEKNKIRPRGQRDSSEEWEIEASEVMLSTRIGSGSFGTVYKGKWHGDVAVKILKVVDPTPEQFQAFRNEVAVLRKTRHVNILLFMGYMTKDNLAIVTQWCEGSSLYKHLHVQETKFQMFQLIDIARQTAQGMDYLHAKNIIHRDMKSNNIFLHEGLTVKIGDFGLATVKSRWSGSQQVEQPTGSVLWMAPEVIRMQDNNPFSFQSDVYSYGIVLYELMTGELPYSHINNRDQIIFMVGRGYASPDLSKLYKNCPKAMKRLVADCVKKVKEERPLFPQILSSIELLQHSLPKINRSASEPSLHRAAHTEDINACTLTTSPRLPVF
T1 sequence (P63104 whole entry partner): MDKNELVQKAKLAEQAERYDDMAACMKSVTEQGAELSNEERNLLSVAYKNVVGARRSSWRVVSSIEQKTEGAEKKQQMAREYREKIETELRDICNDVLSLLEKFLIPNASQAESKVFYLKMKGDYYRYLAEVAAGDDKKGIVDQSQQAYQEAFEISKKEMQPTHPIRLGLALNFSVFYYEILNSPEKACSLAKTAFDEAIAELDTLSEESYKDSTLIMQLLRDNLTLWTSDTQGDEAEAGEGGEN

| SMILES | IC50 (C-RAF) [nM] | IC50 (b-Raf (V600E)) [nM] |
| --- | --- | --- |
| Cc1ccc(NC(=O)c2ccnc(C3CC3)c2)cc1-c1cnc(N2CC(C)(O)C2)c(C#N)c1 [Example 219, N-(3-(5-cyano-6-(3-hydroxy-3-methylazetidin-1-yl)pyridin-3-yl)-4-methylphenyl)-2-cyclopropyl-isonicotinamide] | 0.171 | 1.31 |
| Cc1ccc(NC(=O)c2ccnc(C3(C#N)CC3)c2)cc1-c1cnc(N2CC(C)(O)C2)c(C#N)c1 [Example 220, N-(3-(5-cyano-6-(3-hydroxy-3-methylazetidin-1-yl)pyridin-3-yl)-4-methylphenyl)-2-(1-cyanocyclopropyl) isonicotinamide] | 0.183 | 0.939 |
| CCn1cc(C(=O)Nc2ccc(C)c(-c3cnc(N4CC(C)(O)C4)c(C#N)c3)c2)cc(C(F)(F)F)c1=O [Example 221, N-(3-(5-cyano-6-(3-hydroxy-3-methylazetidin-1-yl)pyridin-yl)-4-methylphenyl)-1-ethyl-6-oxo-5-(trifluoromethyl)-1,6-dihydropyridine-3-carboxamide] | 0.591 | 3.65 |
| Cc1ccc(NC(=O)c2cc(C(F)(F)F)ccn2)cc1-c1cnc(N2CCOCC2)c(C#N)c1 [Example 222, N-(3-(5-cyano-6-morpholinopyridin-3-yl)-4-methylphenyl)-4-(trifluoromethyl) picolinamide] | 0.219 | 1 |
| Cc1ncc(NC(=O)c2cc(C(F)(F)F)ccn2)cc1-c1cnc(N2CCOCC2)c(C#N)c1 [Example 223, N-(5′-cyano-2-methyl-6′-morpholino-[3,3′-bipyridin]-5-yl)-4-(trifluoromethyl) picolinamide] | 0.304 | 1 |
| Cc1ccc(NC(=O)c2cc(C(F)(F)F)ccn2)cc1-c1cnc(N2CC(C)(O)C2)c(C#N)c1 [Example 224, N-(3-(5-cyano-6-(3-hydroxy-3-methylazetidin-1-yl)pyridin-3-yl)-4-methylphenyl)-4-(trifluoromethyl) picolinamide] | 0.49 | 2 |
| Cc1ncc(NC(=O)c2cc(C(F)(F)F)ccn2)cc1-c1cnc(N2CC(C)(O)C2)c(C#N)c1 [Example 225, N-(5′-cyano-6′-(3-hydroxy-3-methylazetidin-1-yl)-2-methyl-[3,3′-bipyridin]-5-yl)-4-(trifluoromethyl) picolinamide] | 1.08 | 5 |
| Cc1ccc(NC(=O)c2cc(C(F)(F)F)ccn2)cc1-c1cnc(NC2CCOCC2)c(C#N)c1 [Example 226, N-(3-(5-cyano-6-((tetrahydro-2H-pyran-4-yl)amino)pyridin-3-yl)-4-methylphenyl)-4-(trifluoromethyl) picolinamide] | 0.695 | 2 |
| Cc1ncc(NC(=O)c2cc(C(F)(F)F)ccn2)cc1-c1cnc(NC2CCOCC2)c(C#N)c1 [Example 227, N-(5′-cyano-2-methyl-6′-((tetrahydro-2H-pyran-4-yl)amino)-[3,3′-bipyridin]-5-yl)-4-(trifluoromethyl) picolinamide] | 0.796 | 3 |
| COCCNc1ncc(-c2cc(NC(=O)c3cc(C(F)(F)F)ccn3)ccc2C)cc1C#N [Example 228, N-(3-(5-cyano-6-((2-methoxyethyl)amino)pyridin-3-yl)-4-methylphenyl)-4-(trifluoromethyl) picolinamide] | 0.409 | 2 |

Next, values leading:

| IC50 (C-RAF) [nM] | IC50 (b-Raf (V600E)) [nM] | SMILES |
| --- | --- | --- |
| 1.37 | 5 | COCCNc1ncc(-c2cc(NC(=O)c3cc(C(F)(F)F)ccn3)cnc2C)cc1C#N [Example 229, N-(5′-cyano-6′-((2-methoxyethyl)amino)-2-methyl-[3,3′-bipyridin]-5-yl)-4-(trifluoromethyl) picolinamide] |
| 0.384 | 2.62 | Cc1ncc(NC(=O)c2cc(C(C)(C)C#N)ccn2)cc1-c1cnc(N2CCOCC2)c(C#N)c1 [Example 230, N-(5′-cyano-2-methyl-6′-morpholino-[3,3′-bipyridin]-5-yl)-4-(2-cyanopropan-2-yl)picolinamide] |
| 1.96 | 15.8 | Cc1ncc(NC(=O)c2cc(C(C)(C)C#N)ccn2)cc1-c1cnc(N2CC(C)(O)C2)c(C#N)c1 [Example 231, N-(5′-cyano-6′-(3-hydroxy-3-methylazetidin-1-yl)-2-methyl-[3,3′-bipyridin]-5-yl)-4-(2-cyanopropan-2-yl)picolinamide] |
| 0.42 | 3.18 | Cc1ccc(NC(=O)c2cc(C(C)(C)C#N)ccn2)cc1-c1cnc(N2CC(C)(O)C2)c(C#N)c1 [Example 232, N-(3-(5-cyano-6-(3-hydroxy-3-methylazetidin-1-yl)pyridin-3-yl)-4-methylphenyl)-4-(2-cyanopropan-2-yl)picolinamide] |
| 0.187 | 1.34 | Cc1ccc(NC(=O)c2cc(C(C)(C)C#N)ccn2)cc1-c1cnc(N2CCOCC2)c(C#N)c1 [Example 233, N-(3-(5-cyano-6-morpholinopyridin-3-yl)-4-methylphenyl)-4-(2-cyanopropan-2-yl)picolinamide] |
| 2.23 | 3.87 | Cc1ncc(NC(=O)c2cc(C(C)(C)O)ccn2)cc1-c1cnc(N2CCOCC2)c(C#N)c1 [Example 234, N-(5′-cyano-2-methyl-6′-morpholino-[3,3′-bipyridin]-5-yl)-4-(2-hydroxypropan-2-yl)picolinamide] |
| 5.8 | 27.9 | Cc1ncc(NC(=O)c2cc(C(C)(C)O)ccn2)cc1-c1cnc(N2CC(C)(O)C2)c(C#N)c1 [Example 235, N-(5′-cyano-6′-(3-hydroxy-3-methylazetidin-1-yl)-2-methyl-[3,3′-bipyridin]-5-yl)-4-(2-hydroxypropan-2-yl)picolinamide] |
| 1.55 | 5.78 | Cc1ccc(NC(=O)c2cc(C(C)(C)O)ccn2)cc1-c1cnc(N2CC(C)(O)C2)c(C#N)c1 [Example 236, N-(3-(5-cyano-6-(3-hydroxy-3-methylazetidin-1-yl)pyridin-3-yl)-4-methylphenyl)-4-(2-hydroxypropan-2-yl)picolinamide] |
| 0.695 | 2.25 | Cc1ccc(NC(=O)c2cc(C(C)(C)O)ccn2)cc1-c1cnc(N2CCOCC2)c(C#N)c1 [Example 237, N-(3-(5-cyano-6-morpholinopyridin-3-yl)-4-methylphenyl) 4-(2-hydroxypropan-2-yl)picolinamide] |
| 0.333 | 2.25 | Cc1ncc(NC(=O)c2cc(C(C)(F)F)ccn2)cc1-c1cnc(N2CCOCC2)c(C#N)c1 [Example 238, N-(5′-cyano-2-methyl-6′-morpholino-[3,3′-bipyridin]-5-yl)-4-(1,1-difluoroethyl) picolinamide] |
| 0.711 | 6.38 | Cc1ncc(NC(=O)c2cc(C(C)(F)F)ccn2)cc1-c1cnc(N2CC(C)(O)C2)c(C#N)c1 [Example 239] |
| 0.519 | 3.51 | Cc1ccc(NC(=O)c2cc(C(C)(F)F)ccn2)cc1-c1cnc(N2CC(C)(O)C2)c(C#N)c1 [Example 240, N-(3-(5-cyano-6-(3-hydroxy-3-methylazetidin-1-yl)pyridin-3-yl)-4-methylphenyl)-4-(1,1-difluoroethyl) picolinamide] |
| 0.279 | 1.5 | Cc1ccc(NC(=O)c2cc(C(C)(F)F)ccn2)cc1-c1cnc(N2CCOCC2)c(C#N)c1 [Example 241, N-(3-(5-cyano-6-morpholinopyridin-3-yl)-4-methylphenyl)-4-(1,1-difluoroethyl) picolinamide] |
